# Results: patent US11672786B2, “Methods of treating diseases associated with repeat instability” (The Hospital for Sick Children, priority 2016, dated 2023)
# Tested on: CASK, HTT (normal allele), Mfd15 and TBP loci in HD fibroblasts
# Assay: repeat-tract lengths of non-expanded loci in HD fibroblasts
# Type: cell-based, human
# Excerpt: Scale bar represents 20 μm. […] The cell viability was estimated with WST-1 assays. Values represent the means of three independent measures±SD. […] Error bars indicate the SD of triplicate experiments. […] The dashed line indicates the peak CAG size. Allele lengths are grouped in bins spanning 10 repeats. More than 230 alleles were sized per group.
# FIG. 12 are representative data showing ultra-sensitive small-pool PCR for the non-expanded CAG/CTG repeat length of CASK in HD primary fibroblast cells (Panel A of FIG. 12) and HT1080-(CAG)850 cells (Panel B of FIG. 12). […] Repeat lengths were analyzed by Agilent BioAnalyzer.
# Genomic DNA was extracted from HT1080-(CAG)850 clones and HD primary fibroblasts using the Gentra Puregene Cell Kit (Qiagen, Valencia, Calif.). […] At least 50 alleles were analyzed for each of the three experiments (more than 150 alleles for a total study). […] For the histograms in FIGS. 4D, 4E, 10, 11, 5B, 5D, 5E, 14 and 15B, the Y-axis, “% of repeat population” was calculated by determining the proportion of >50 individual small-pool PCR reactions across the CAG repeat tract, that harbored a certain size of repeat product with a certain length. […] Length distributions were determined as follows: Small-pool PCR followed by Southern blot for analysis of CAG/CTG repeat length. […]
substance,measurement,setting,value
naphthyridine-azaquinolone,"length variation at CASK, HTT (normal allele), and Mfd15 loci",40 days incubation with or without NA,Length variation was not observed
same,length distribution of non-mutant TBP repeats (38 and 34 repeats),"HD patient cells, 40 days",did not change the length distribution of the TBP repeats
